Literature values as cited in patent US20090306049A1, “Treatment of Barrett's Esophagus” (HUBRECHT LABORATORIUM, priority 2005, published 2009).

Tested on: Barrett's carcinoma

O=P1(NCCCl)OCCCN1CCCl (stereo not shown) [ifosfamide]
overall efficacy of treatment (25 patients treated): essentially ineffective | patients cured of metastatic adenocarcinoma in Barrett's oesophagus (25 patients treated): One | patients with a partial response (25 patients treated): one | toxicity associated with treatment (generally considered): severe toxicity
